Results reported in PubChem BioAssay (NCI).
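Results reflect a 48-hour exposure of cells in 96-well plates to compound at five concentrations. Here, GI50 denotes the concentration required for 50% inhibition of growth. TGI: concentration producing complete growth inhibition.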

How the values were obtained:
Test in all cases: inhibition of tumour cell growth, NCI panel, 48 h
HCC-2998 colon = system: HCC-2998 colon
HCT-116 colon = system: HCT-116 colon
HCT-15 colon = system: HCT-15 colon
HS 578T breast = system: HS 578T breast
M14 melanoma = system: M14 melanoma
MALME-3M melanoma = system: MALME-3M melanoma
NCI-H226 lung = system: NCI-H226 lung
SK-MEL-28 melanoma = system: SK-MEL-28 melanoma
UACC-257 melanoma = system: UACC-257 melanoma
RXF 393 renal = system: RXF 393 renal

Row | Structure (SMILES) | GI50 (HCC-2998 colon) | TGI (HCC-2998 colon) | GI50 (HCT-116 colon) | TGI (HCT-116 colon) | GI50 (HCT-15 colon) | TGI (HCT-15 colon) | GI50 (HS 578T breast) | TGI (HS 578T breast) | GI50 (M14 melanoma) | TGI (M14 melanoma) | GI50 (MALME-3M melanoma) | TGI (MALME-3M melanoma) | GI50 (NCI-H226 lung) | TGI (NCI-H226 lung) | GI50 (SK-MEL-28 melanoma) | TGI (SK-MEL-28 melanoma) | GI50 (UACC-257 melanoma) | TGI (UACC-257 melanoma) | GI50 (RXF 393 renal) | TGI (RXF 393 renal)
1 | C/C(=N\n1c(O)c(C#N)cc(C#N)c1=O)c1ccncc1 | > 100 µM | > 100 µM | > 100 µM | > 100 µM | > 100 µM | > 100 µM | > 100 µM | > 100 µM | > 100 µM | > 100 µM | > 100 µM | > 100 µM | > 100 µM | > 100 µM | > 100 µM | > 100 µM | > 100 µM | > 100 µM |  | 
2 | O=C(Nc1ccccc1C(F)(F)F)c1ccc(NC2=C(Cl)C(=O)N(Cc3ccccc3)C2=O)cc1 | 16.3 µM | 35.6 µM | 29.4 µM | > 100 µM | 4.19 µM | > 100 µM | 43.6 µM | > 100 µM | 51.6 µM | > 100 µM |  |  | 13.6 µM | 92.2 µM | > 100 µM | > 100 µM | 28.7 µM | 82.9 µM | 13.8 µM | 37.7 µM
3 | COc1ccc(Cn2cc3c(c2)-c2oncc2CC3)cc1OC | 0.172 µM | 2.54 µM | 0.193 µM | 8.57 µM | 0.214 µM | > 50 µM | 0.132 µM | 0.447 µM | 0.154 µM | 16 µM |  |  | 0.704 µM | > 50 µM | 0.326 µM | > 50 µM | 1.69 µM | 22.3 µM | 0.173 µM | 
4 | CC(=O)OCC1OC(OCc2ccccc2)C(Br)C(OC(C)=O)C1OC(C)=O (stereo unspecified) |  | > 100 µM |  | > 100 µM |  | > 100 µM |  |  |  | > 100 µM |  | > 100 µM |  | > 100 µM |  | > 100 µM |  | > 100 µM |  | > 100 µM
5 | ClCc1ccc(Cn2cnc3c(Cl)ncnc32)cc1 |  |  | 10.4 µM | 17.4 µM | 10.6 µM | > 36.7 µM | 13.6 µM | 29.1 µM | 9.84 µM | 19 µM |  |  | 12.7 µM | 28.6 µM | > 28.1 µM | > 55.7 µM | 24.2 µM | 50 µM | 13 µM | 30.4 µM
6 | Cc1ccc(Cl)cc1NC(=O)c1cc2ccccc2cc1O | 0.692 µM | 2.47 µM | 0.284 µM | 0.924 µM | 0.506 µM |  | 0.304 µM | 1.96 µM | 0.325 µM | 1.21 µM | 0.211 µM | 0.692 µM | 0.417 µM | 3.1 µM |  |  | 0.277 µM | 0.909 µM | 0.55 µM | 2.23 µM
7 | CCCCCC[C@@H](C)Nc1nc2ccccc2c2occc12 | 9.35 µM | 21.5 µM | 4.87 µM | 18.1 µM | 10.1 µM | 21.6 µM | 16.5 µM | 40.5 µM | 11.2 µM | 23.2 µM |  |  |  |  | 18.5 µM | 36.5 µM | 4.67 µM | 24 µM | 13.9 µM | 34.4 µM
